Laboratory results reported in patent publication EP3046573B1, “AMYLIN ANALOGUES” (Zealand Pharma A/S, priority 2013, dated 2015).
Read-outs that look alike come from different tables or passages of the source. Numbered stars: 1 amine (or outer) side, 2 acyl side, 3 side chain; on linkers, the order of the positions; unused ones are H or OH. Bridge positions count the residues as written; N and C are the ends. Square brackets hold non-standard residues; d marks the D form. Peptide text beside a SMILES is read from it. * marks the point of attachment. C20 diacid = O=C(O)CCCCCCCCCCCCCCCCCCC(=O)*; Pro(4R-NH2) = N[C@H]1CN[C@H](C(=O)O)C1; γGlu = O=C(O)[C@H](CCC(=O)[*:2])N[*:1]; NMeI = CC[C@H](C)[C@H](NC)C(=O)O; Sar = CNCC(=O)O

Experiments:
[1] = Assessment of physical stability: fibril formation detected with Thioflavin T (ThT), lag-time; assay type: physicochemical; settings: 1 mg/ml peptide, 40 µM ThT, FND = Fibrillation not detected; for Fibrillation lag time (hours) pH 4.0 (Ac): 50 mM acetate buffer pH 4.0, 96 hours at 40°C; for Fibrillation lag time (hours) pH 7.0 (His): 50 mM histidine buffer pH 7.0, 96 hours at 40°C; for Fibrillation lag time (hours) pH 7.0 (Ph): 50 mM phosphate buffer pH 7.0, 96 hours at 40°C
Summary of the method: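 Test peptide at 1 mg/ml with 40 µM ThT in 50 mM phosphate (pH 7.0), 50 mM histidine (pH 7.0) or 50 mM acetate (pH 4.0), in triplicate, 40° C. for 96 h. Fluorescence read every 10 min after 300 s agitation. Lag-time (h) taken as intersection of linear fits to initial stable and growth phases.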

[2] = Solubility assessment (turbidity absorbance at 325 nm); assay type: physicochemical; settings: stock 2 mg/ml diluted 1:1, ambient temperature (typically 25°C), n=1; for Solubility, Acetate buffer pH 4: 100 mM acetate buffer pH 4.0; for Solubility, Acetate buffer pH 5: 100 mM acetate buffer pH 5.0; for Solubility, Histidine buffer pH 6: 100 mM histidine buffer pH 6.0; for Solubility, Histidine buffer pH 7: 100 mM histidine buffer pH 7.0; for Solubility, Phosphate buffer pH 6: 100 mM phosphate buffer pH 6.0; for Solubility, Phosphate buffer pH 7: 100 mM phosphate buffer pH 7.0; for Solubility, Phosphate buffer pH 7.5: 100 mM phosphate buffer pH7.5
Summary of the method: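 Read-out: turbidity as absorbance at 325 nm (280 nm also read), single samples, ambient temperature of typically 25°C. Samples were a 1:1 mix of 2 mg/ml stock (water, pH 2.5) with 100 mM acetate, histidine or phosphate buffers spanning pH 4.0–7.5. Cut-off: A325 ≤ 0.02 indicates ≥ 1 mg/ml.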

[3] = target: T1, human amylin receptor 3 (hAMYR3) consisting of hCTR2 co-expressed with human Receptor Activity Modifying Protein 3 (hRAMP3) (Homo sapiens, UniProt O60896+P30988); assay: hAMYR3 assay: induction of cAMP (AlphaScreen cAMP Assay kit) in COS7 cells expressing hAMYR3; assay type: cell-based
T1 construct: expressed in transfected cells
T1 sequence (P30988 25-474): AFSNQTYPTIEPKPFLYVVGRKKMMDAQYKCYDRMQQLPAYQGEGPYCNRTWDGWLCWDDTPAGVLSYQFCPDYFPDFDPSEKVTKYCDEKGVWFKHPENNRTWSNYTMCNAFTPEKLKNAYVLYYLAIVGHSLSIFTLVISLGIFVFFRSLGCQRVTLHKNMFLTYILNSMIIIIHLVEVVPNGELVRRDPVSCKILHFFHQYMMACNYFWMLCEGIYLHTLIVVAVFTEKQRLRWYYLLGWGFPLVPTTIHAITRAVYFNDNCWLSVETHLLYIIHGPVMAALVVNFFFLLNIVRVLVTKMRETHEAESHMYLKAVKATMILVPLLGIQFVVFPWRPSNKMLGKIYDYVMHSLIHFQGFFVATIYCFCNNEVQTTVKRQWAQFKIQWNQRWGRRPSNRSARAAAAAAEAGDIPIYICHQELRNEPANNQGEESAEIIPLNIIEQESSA
T1 sequence (O60896 24-148 partner): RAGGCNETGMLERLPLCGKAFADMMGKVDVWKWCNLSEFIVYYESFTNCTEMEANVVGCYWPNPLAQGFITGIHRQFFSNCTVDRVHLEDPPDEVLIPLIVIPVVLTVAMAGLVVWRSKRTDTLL
Summary of the method: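 cAMP accumulation read by AlphaScreen in lysates of RAMP-naive COS7 cells stably transfected with hCTR2 plus hRAMP3. Cells exposed to peptide dilutions for 15 min, 37° C, with 100 µM IBMX; 4PL fitting gave EC50 and efficacy relative to pramlintide.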

| EC50 ([3]; cAMP induction in COS7 cells expressing hAMYR3, average of a minimum of 3 determinations, read-out: hAMY R3 EC50) [pM] | Compound | Fibrillation lag time (hours) pH 4.0 (Ac) [1] | Fibrillation lag time (hours) pH 7.0 (His) [1] | Fibrillation lag time (hours) pH 7.0 (Ph) [1] | Solubility, Acetate buffer pH 4 [2] | Solubility, Acetate buffer pH 5 [2] | Solubility, Histidine buffer pH 6 [2] | Solubility, Histidine buffer pH 7 [2] | Solubility, Phosphate buffer pH 6 [2] | Solubility, Phosphate buffer pH 7 [2] | Solubility, Phosphate buffer pH 7.5 [2] | EC50 [3] [pM] |
| --- | --- | --- | --- | --- | --- | --- | --- | --- | --- | --- | --- | --- |
|  | CC[C@H](C)[C@@H](C(=O)N[C@@H](CC(C)C)C(=O)N[C@@H](CO)C(=O)N[C@@H](CO)C(=O)N[C@H](C(=O)N[C@@H](CC(N)=O)C(=O)N[C@H](C(=O)NCC(=O)N[C@@H](CO)C(=O)N[C@@H](CC(N)=O)C(=O)N[C@H](C(=O)N1C[C@H](N)C[C@H]1C(N)=O)[C@@H](C)O)C(C)C)[C@@H](C)O)N(C)C(=O)[C@H](C)NC(=O)CN(C)C(=O)[C@H](Cc1ccccc1)NC(=O)[C@H](CC(N)=O)NC(=O)[C@H](CC(N)=O)NC(=O)[C@H](CO)NC(=O)[C@H](CO)NC(=O)[C@H](CCCNC(=N)N)NC(=O)[C@H](Cc1c[nH]cn1)NC(=O)[C@H](CC(C)C)NC(=O)[C@H](Cc1ccccc1)NC(=O)[C@H](CCC(=O)O)NC(=O)[C@H](C)NC(=O)[C@H](CC(C)C)NC(=O)[C@H](CCCNC(=N)N)NC(=O)[C@H](CCC(N)=O)NC(=O)[C@@H](NC(=O)[C@H](C)NC(=O)[C@@H]1CSSC[C@H](NC(=O)[C@H](CCCNC(=N)N)NC(=O)CC[C@H](NC(=O)CCCCCCCCCCCCCCCCCCC(=O)O)C(=O)O)C(=O)N[C@@H](CC(N)=O)C(=O)N[C@@H]([C@@H](C)O)C(=O)N[C@@H](C)C(=O)N[C@@H]([C@@H](C)O)C(=O)N1)[C@@H](C)O [Compound 110, [19CD]-isoGlu-RC()NTATC()ATQRLAEFLHRSSNNF-Gly(Me)-A-Ile(Me)-LSSTNVGSNT-Apr-NH2] ({C20 diacid-γGlu}-RCNTATCATQRLAEFLHRSSNNF[Sar]A[NMeI]LSSTNVGSNT[Pro(4R-NH2)]-NH2; disulfide 2-7) | FND | FND | FND | SS (SS indicates solubility ≥ 1mg/ml) | SS (SS indicates solubility ≥ 1mg/ml) | SS (SS indicates solubility ≥ 1mg/ml) | SS (SS indicates solubility ≥ 1mg/ml) | II (II indicates solubility ≤ 1 mg/ml) | SS (SS indicates solubility ≥ 1mg/ml) | SS (SS indicates solubility ≥ 1mg/ml) | 87 |
|  | CC[C@H](C)[C@@H](C(=O)N[C@@H](CC(C)C)C(=O)N[C@@H](CO)C(=O)N[C@@H](CO)C(=O)N[C@H](C(=O)N[C@@H](CCC(=O)O)C(=O)N[C@H](C(=O)NCC(=O)N[C@@H](CO)C(=O)N[C@@H](CCC(=O)O)C(=O)N[C@H](C(=O)N1CCC[C@H]1C(N)=O)[C@@H](C)O)C(C)C)[C@@H](C)O)N(C)C(=O)[C@H](C)NC(=O)CN(C)C(=O)[C@H](Cc1ccccc1)NC(=O)[C@H](CO)NC(=O)[C@H](CO)NC(=O)[C@H](CO)NC(=O)[C@H](CO)NC(=O)[C@H](CCCNC(=N)N)NC(=O)[C@H](Cc1c[nH]cn1)NC(=O)[C@H](CC(C)C)NC(=O)[C@H](Cc1ccccc1)NC(=O)[C@H](CCC(=O)O)NC(=O)[C@H](C)NC(=O)[C@H](CC(C)C)NC(=O)[C@H](CCCNC(=N)N)NC(=O)[C@H](CC(=O)O)NC(=O)[C@@H](NC(=O)[C@H](C)NC(=O)[C@@H]1CSSC[C@H](NC(=O)[C@H](CCCNC(=N)N)NC(=O)CC[C@H](NC(=O)CCCCCCCCCCCCCCCCCCC(=O)O)C(=O)O)C(=O)N[C@@H](CC(N)=O)C(=O)N[C@@H]([C@@H](C)O)C(=O)N[C@@H](C)C(=O)N[C@@H]([C@@H](C)O)C(=O)N1)[C@@H](C)O [Compound 120, [19CD]-isoGlu-RC()NTATC()ATDRLAEFLHRSSSSF-Gly(Me)-A-Ile(Me)-LSSTEVGSETP-NH2] ({C20 diacid-γGlu}-RCNTATCATDRLAEFLHRSSSSF[Sar]A[NMeI]LSSTEVGSETP-NH2; disulfide 2-7) | FND | FND | FND | SS (SS indicates solubility ≥ 1mg/ml) | SS (SS indicates solubility ≥ 1mg/ml) | SS (SS indicates solubility ≥ 1mg/ml) | SS (SS indicates solubility ≥ 1mg/ml) | SS (SS indicates solubility ≥ 1mg/ml) | SS (SS indicates solubility ≥ 1mg/ml) | SS (SS indicates solubility ≥ 1mg/ml) | 150 |
| 650 | CC[C@H](C)[C@@H](C(=O)N[C@@H](CC(C)C)C(=O)N[C@@H](CO)C(=O)N[C@@H](CO)C(=O)N[C@H](C(=O)N[C@@H](CCC(=O)O)C(=O)N[C@H](C(=O)NCC(=O)N[C@@H](CO)C(=O)N[C@@H](CCC(=O)O)C(=O)N[C@H](C(=O)N1CCC[C@H]1C(N)=O)[C@@H](C)O)C(C)C)[C@@H](C)O)N(C)C(=O)[C@H](C)NC(=O)CN(C)C(=O)[C@H](Cc1ccccc1)NC(=O)[C@H](CO)NC(=O)[C@H](CO)NC(=O)[C@H](CO)NC(=O)[C@H](CO)NC(=O)[C@H](CCCNC(=N)N)NC(=O)[C@H](Cc1c[nH]cn1)NC(=O)[C@H](CC(C)C)NC(=O)[C@H](Cc1ccccc1)NC(=O)[C@H](CCC(=O)O)NC(=O)[C@H](C)NC(=O)[C@H](CC(C)C)NC(=O)[C@H](CCCNC(=N)N)NC(=O)[C@H](CCC(=O)O)NC(=O)[C@@H](NC(=O)[C@H](C)NC(=O)[C@@H]1CSSC[C@H](NC(=O)[C@H](CCCNC(=N)N)NC(=O)CC[C@H](NC(=O)CCCCCCCCCCCCCCCCCCC(=O)O)C(=O)O)C(=O)N[C@@H](CCC(=O)O)C(=O)N[C@@H]([C@@H](C)O)C(=O)N[C@@H](C)C(=O)N[C@@H]([C@@H](C)O)C(=O)N1)[C@@H](C)O [Compound 134, [19CD]-isoGlu-RC()ETATC()ATERLAEFLHRSSSSF-Gly(Me)-A-Ile(Me)-LSSTEVGSETP-NH2] ({C20 diacid-γGlu}-RCETATCATERLAEFLHRSSSSF[Sar]A[NMeI]LSSTEVGSETP-NH2; disulfide 2-7) | FND | FND | FND | SS (SS indicates solubility ≥ 1mg/ml) | SS (SS indicates solubility ≥ 1mg/ml) | SS (SS indicates solubility ≥ 1mg/ml) | SS (SS indicates solubility ≥ 1mg/ml) | SS (SS indicates solubility ≥ 1mg/ml) | SS (SS indicates solubility ≥ 1mg/ml) | SS (SS indicates solubility ≥ 1mg/ml) |  |
